{
  "source": "patent US20160051514A1",
  "about": "“METHODS FOR TREATMENT OF CARDIOMYOPATHY” (THE BRIGHAM AND WOMEN'S HOSPITAL, INC., priority 2013, published 2016)",
  "key": {"[1]": {"tested_on": "2057del2 plakoglobin zebrafish", "assay": "Survival and cardiac physiology in the zebrafish model of ACM", "assay_type": "in vivo", "procedure": "In-house software (implemented in MATLAB™) was used to determine heart rate, while measurements of ventricular long and short axes in both diastole and systole were obtained using ImageJ™. Cardiac output was measured as diastolic minus systolic ventricular volume multiplied by heart rate, as outlined by Shin et al (30). Fractional shortening was calculated as end-diastolic diameter minus end-systolic diameter divided by end-diastolic diameter.\nSurvival studies: Embryos were kept in petri dishes until 7 dpf and then transferred to nursery tanks with larval food. Observations for phenotype and survival were recorded for several weeks. Data are presented as a Kaplan-Meier curve using Graphpad™ software."}, "[2]": {"tested_on": "neonatal rat ventricular myocytes expressing 2057del2 plakoglobin", "assay": "Immunofluorescence of intercalated disk proteins in neonatal rat ventricular myocytes", "assay_type": "cell-based", "procedure": "Neonatal rat ventricular myocyte isolation and culture, stretch protocols: Primary cardiac myocyte cultures were prepared from ventricles of 1-day-old Wistar rat pups (Charles River) as previously described.^9 Cells were plated on collagen-coated plastic chamber slides at a density of […] cells/cm^2 and grown for 4 days prior to experimentation. In selected experiments, monolayers grown on collagen--coated silicone membranes were subjected to linear pulsatile stretch using a custom-designed apparatus as described in previous studies.'° Cells were stretched to 110% of resting length at a. frequency of 3 Hz for 1-4 hr in serum-free medium. In other experiments cultures were incubated with reagents including pifitlirin A (5 μM, 1 hr) and SB216763 (5 μM, 24 hr) prior to experimentation. All protocols were approved by the Institutional Animal Care and Use Committee (IACUC).\nViral transfection: A recombinant adenoviral construct expressing 2057del2-plakoglobin was created with the ViraPower Adenoviral Expression system (Invitrogen) using the pAd/CMV/V5-DEST vector through LR clonase-mediated recombination. The V5-tag was used to identify the mutant protein and distinguish it from wildtype plakoglobin. Two days post-plating, monolayers were exposed to viral solution (1:130 dilution in serum-free media, 37° C.) for 1 hr after which viral solution was replaced with complete medium in the presence or absence of reagents.\nImmunofluoresence staining and microscopy in cultured cells: Cultures were rinsed in serum-free medium and fixed in 4% paraformaldehyde at room temperature for 5 min or in acetone at −20° C. for 10 min. Fixed cells were immunostained with mouse monoclonal anti-plakoglobin (Sigma), anti-N-cadhcrin (Sigma), anti-Cx43 (Millipore), anti-desmopla.kin (Fitzgerald), anti-SAP97 (Santa Cruz Biotechnology) antibodies and anti-Nav1.5 (kindly provided by Dr. Hugues Abriel, University of Bern, Switzerland) antibodies. Specific immunoreactive signal was detected by laser scanning confocal microscopy as previously described.”\nNeonatal rat ventricular myocyte isolation, culture, stretch protocols: Primary cardiac myocyte cultures were prepared from ventricles of 1-day-old Wistar rat pups (Charles River) as previously described (36). Cells were plated on collagen-coated plastic chamber slides at a density of 2.4×10^5 cells/cm2 and grown for 4 days prior to experimentation. In selected experiments, monolayers grown on collagen-coated silicone membranes were subjected to linear pulsatile stretch using a custom-designed apparatus as described in previous studies (35). Cells were stretched to 110% of resting length at a frequency of 3 Hz for 1-4 hr in serum-free medium. In other experiments cultures were incubated with reagents including pifithrin A (5 μM, 1 hr) and SB216763 (0.1-10 μM for 12 or 24 hr) prior to experimentation. Vehicle controls (DMSO) were included in all experiments.\nViral transfection: A recombinant adenoviral construct expressing 2057del2 plakoglobin was created with the ViraPower Adenoviral Expression™ system (Invitrogen) using the pAd/CMV/V5-DEST vector through LR clonase-mediated recombination. The V5-tag was used to identify the mutant protein and distinguish it from wildtype plakoglobin. Two days post-plating, monolayers were exposed to viral solution (1:130 dilution in serum-free media, 37° C.) for 1 hr after which viral solution was replaced with complete medium in the presence or absence of reagents. Immunofluorescence staining and microscopy in cultured cells: Cultures were rinsed in serum-free medium and fixed in 4% paraformaldehyde at 25° C. for 5 min or in acetone at −20° C. for 10 min. Fixed cells were immunostained with mouse monoclonal anti-plakoglobin (Sigma), anti-N-cadherin (Sigma), anti-Cx43 (Millipore), anti-desmoplakin (Fitzgerald), anti-SAP97 (Santa Cruz Biotechnology) antibodies and anti-Nav1.5 antibodies (rabbit polyclonal)."}, "[3]": {"settings": "cells expressing 2057del2 plakoglobin, 5 μM, 24 hr"}, "[4]": {"settings": "cells expressing 2057del2 plakoglobin, 5 μM, 24 hr, listed as SAB216763"}, "[5]": {"settings": "cells expressing 2057del2 plakoglobin, exposure for 24 hr"}},
  "note": "“Also recorded” adds a separate entry of the source.",
  "data": [
    {"smiles": "Cn1cc(C2=C(c3ccc(Cl)cc3Cl)C(=O)NC2=O)c2ccccc21", "note": "[SB216763]", "values": [
      {"measurement": "Survival at 3 months", "setting": "[1]; longer term treatment of larval fish (7 days)", "value": "substantially increased survival"},
      {"measurement": "Cardiac phenotype (bradycardia, contractility, heart failure)", "setting": "[1]; mutant fish", "value": "rescues the heart failure phenotype; also recorded: prevented heart failure; also recorded: prevented bradycardia and contractility defects"},
      {"measurement": "Survival at 28 days", "setting": "[1]; mutant fish", "value": "significantly increased survival"},
      {"measurement": "Cardiac phenotype (bradycardia, contractility, heart failure)", "setting": "[1]; mutant fish, listed as SB2", "value": "reduced nppb expression and bradycardia, improved contractility"},
      {"measurement": "Survival / mortality of mutant fish", "setting": "[1]; time not stated", "value": "reduced mortality; also recorded: increased survival"},
      {"measurement": "Developmental abnormalities", "setting": "[1]; wide range of doses during embryonic or larval development", "value": "No developmental abnormalities were observed"},
      {"measurement": "Disease features (plakoglobin redistribution, gap junction remodeling, cytokine expression, myocyte apoptosis), summary statements", "setting": "[2]", "value": "normalized; also recorded: reversed or prevented"},
      {"measurement": "Gap junction remodeling / junctional Cx43 signal", "setting": "[2]; [3]", "value": "increased junctional signal for Cx43; also recorded: prevented the adverse remodeling of gap junctions"},
      {"measurement": "Subcellular distribution of plakoglobin immunoreactive signal (junctional vs intracellular/nuclear)", "setting": "[2]; [3]", "value": "prevented the marked change in subcellular distribution of plakoglobin and accumulation of nuclear signal"},
      {"measurement": "Gap junction remodeling / junctional Cx43 signal", "setting": "[2]; [4]", "value": "blocked"},
      {"measurement": "Subcellular distribution of plakoglobin immunoreactive signal (junctional vs intracellular/nuclear)", "setting": "[2]; [4]", "value": "prevented redistribution of plakoglobin from junctional to intracellular pools"},
      {"measurement": "Nav1.5 immunoreactive signal", "setting": "[2]; [5]", "value": "signal levels were restored; also recorded: reversed"},
      {"measurement": "SAP97 immunoreactive signal at the cell surface / cell-cell junctions", "setting": "[2]; [5]", "value": "a more normal distribution was restored; also recorded: fully reversed"},
      {"measurement": "Cx43 signal at cell-cell junctions in control (non-transfected) cultures", "setting": "[2]; control cultures, 5 μM, 24 hr", "value": "increased the amount of Cx43 signal at cell-cell junctions; also recorded: also increased junctional signal for Cx43"},
      {"measurement": "Concentration of maximal effect in restoring normal cellular distribution of plakoglobin and Cx43 signals", "setting": "[2]; dose-response 0.1-10 μM for 12 or 24 hours, maximal at 24 hr", "value": 5, "unit": "µM"}
    ]}
  ]
}
